Measurements as given in BindingDB's records for PubMed 37866336 (The First Affiliated Hospital of China Medical University).
pKi: −log10 of the molar value.

Legend:
[1] = target: Melatonin receptor type 1A (Homo sapiens, UniProt P48039); test: Binding affinity to human MT1 receptor expressed in CHO cells assessed as inhibition constant by HTRF method
[2] = target: T1, Melatonin receptor type 1B (Homo sapiens, UniProt P49286); test: Binding affinity to human MT2 receptor expressed in CHO cells assessed as inhibition constant by HTRF method
T1 sequence (P49286 whole entry): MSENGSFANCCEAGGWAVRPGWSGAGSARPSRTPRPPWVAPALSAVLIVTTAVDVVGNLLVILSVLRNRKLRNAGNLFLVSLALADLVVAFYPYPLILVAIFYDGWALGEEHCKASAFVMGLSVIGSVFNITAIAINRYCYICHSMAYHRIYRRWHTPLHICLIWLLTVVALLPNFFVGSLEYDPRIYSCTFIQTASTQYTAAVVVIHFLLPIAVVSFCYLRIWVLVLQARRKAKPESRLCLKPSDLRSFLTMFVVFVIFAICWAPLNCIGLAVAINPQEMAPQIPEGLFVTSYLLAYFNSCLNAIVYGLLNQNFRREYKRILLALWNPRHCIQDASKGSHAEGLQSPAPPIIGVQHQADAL

Melatonin receptor type 1A, sequence (P48039 whole entry): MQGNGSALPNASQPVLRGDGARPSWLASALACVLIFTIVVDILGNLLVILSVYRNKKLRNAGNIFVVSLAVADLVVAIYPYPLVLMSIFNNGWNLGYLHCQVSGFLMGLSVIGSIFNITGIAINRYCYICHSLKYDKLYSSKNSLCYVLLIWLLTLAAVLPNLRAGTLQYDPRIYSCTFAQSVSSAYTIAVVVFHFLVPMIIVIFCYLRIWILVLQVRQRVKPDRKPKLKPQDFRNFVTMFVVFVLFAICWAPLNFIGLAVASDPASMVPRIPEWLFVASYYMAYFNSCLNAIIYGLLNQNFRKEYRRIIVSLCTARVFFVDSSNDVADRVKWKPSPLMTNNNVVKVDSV

pKi [1]	pKi [2]	SMILES
7.44	–	CCCn1c(NC(=O)Cc2coc3cc(OC)ccc23)nc2ccccc21 [Name not given]
–	7.44	N#CN1CC[C@@H](NC(=O)c2ccc(-c3cnc4nccn4c3)cc2F)C1 [Name not given]
